Values quoted from earlier work in patent US6462026B1, “Bicyclic leucomycins” (Enanta Pharmaceuticals, Inc., priority 2001, dated 2002).
Like-named read-outs stand apart in the source and are kept apart here.

Tests used:
[1] = monkeys; compared with other 3″-O-acyl derivatives of leucomycin A5
[2] = dogs; compared with other 3″-O-acyl derivatives of leucomycin A5
[3] = tested on: Gram-negative bacteria; conditions: relative to leucomycin A5, josamycin and midecamycin
[4] = metabolites isolated from urine and plasma of adults given oral josamycin
[5] = parent compound rokitamycin
[6] = tested on: Mycoplasma spp.
[7] = tested on: Gram-positive bacteria

CCCC(=O)O[C@H]1[C@H](C)O[C@@H](O[C@H]2[C@H](N(C)C)[C@@H](O)[C@H](O[C@H]3[C@@H](CC=O)C[C@@H](C)[C@@H](O)/C=C/C=C/C[C@@H](C)OC(=O)C[C@@H](O)[C@@H]3OC)O[C@@H]2C)C[C@@]1(C)OC(=O)CC [rokitamycin, 3″-O-propionyl leucomycin A5]
serum levels [1]: highest serum levels | serum levels [2]: highest serum levels | in vitro activity against Gram-negative bacteria [3]: twice as high

COC1C(OC(C)=O)CC(=O)OC(C)CC=CC=CC(O)C(C)CC(CC=O)C1OC1OC(C)C(OC2CC(C)(O)C(O)C(C)O2)C(N(C)C)C1O (centres unmarked) [desisovaleryl josamycin]
antimicrobial activity [4]: inactive

5-hydroxyjosamycin
antimicrobial activity [4]: poor antimicrobial activity

CCC(=O)O[C@H]1[C@H](C)O[C@@H](O[C@H]2[C@H](N(C)C)[C@@H](O)[C@H](O[C@H]3[C@@H](CC=O)C[C@@H](C)[C@@H](O)/C=C/C=C/C[C@@H](C)OC(=O)C[C@@H](O)[C@@H]3OC)O[C@@H]2C)C[C@@]1(C)O [Leucomycin A7]
in vitro potency relative to the parent compound [5]: one-half

demycarosyl josamycin
antimicrobial activity [4]: inactive

4″-debutyryl leucomycin A5 [Lecomycin V]
in vitro potency relative to the parent compound [5]: one-tenth

β-hydroxyisovaleryl josamycin
antimicrobial activity [4]: poor antimicrobial activity

COC1C(O)CC(=O)OC(C)CC=CC=CC(=O)C(C)CC(CC=O)C1OC1OC(C)C(OC2CC(C)(O)C(OC(=O)CC(C)C)C(C)O2)C(N(C)C)C1O (centres unmarked) [Niddamycin]
antibacterial activity in vitro [6]: good antibacterial activity | antibacterial activity in vitro [7]: good antibacterial activity
